Measured values taken from patent publication US4428950A, “(Hetarylphenoxy)-(phenylpiperazinyl)-propanols, their preparation and drugs containing these compounds” (BASF Aktiengesellschaft, priority 1981, dated 1984).
Where a name gives a salt, the structure may show the parent alone. Read-outs that look alike come from different tables or passages of the source.

Legend:
histamine bronchospasm = test: Broncholytic action (histamine-induced bronchospasm, guineapigs under urethane narcosis); assay type: in vivo, guineapig (Pirbright white); conditions: guineapig
Description: Male or female guineapigs (Pirbright white, weight 300-500 g) under urethane narcosis (1.5 g/kg administered intraperitoneally) are subjected to artificial respiration using a tracheal cannula. Bronchospasms are caused by intravenous injection of histamine dihydrochloride (1.0-4.64 μg/kg), and an antagonistic effect on these can be brought about by prior intravenous administration of the test substance. The spasms are recorded by the method of Konzett and Rossler (Naunyn Schmiedeberg's Arch. 195 (1940), 71), via inductive pressure sensors.

[1] = system: orientation hypermotility; test: Sedative action (orientation hypermotility induced by a new environment, mice); assay type: in vivo, mouse (NMRI, female); conditions: for effect in respect of sedation, % of that of chlorpromazine: relative to chlorpromazine; for Sedative effect R.A. (relative activity): chlorpromazine = 1.00; for sedative-neuroleptic properties: according to Table 1
Description: The substance was administered orally to 4-8 groups each comprising 3 female NMRI mice. The orientation hypermotility induced by a new environment is determined photoelectrically, 30 minutes after administration of the substance, over a period of 30 minutes. The ED 50%, ie. the dose which produces a 50% reduction in orientation hypermotility compared to placebo-treated control animals, is determined.

catalepsy = test: Cataleptic action (front extremities on 8 cm high bar, rats); assay type: in vivo, rat (Sprague-Dawley, female); conditions: for Cataleptic effect R.A. (relative activity): chlorpromazine = 1.00; for ED50: ip, read-out: Cataleptic effect ED 50%; for effect in respect of catalepsy, % of that of chlorpromazine: relative to chlorpromazine
Description: 30, 60, 120 and 240 minutes after intraperitoneal administration of the substance, female Sprague-Dawley rats were placed with the front extremities on an 8 cm high bar. If, because of postural rigidity, the animals remain in this position for longer than 15 seconds, they are regarded as cataleptic.

blood pressure = test: Hypotensive action (blood pressure in carotid artery of rats under urethane narcosis); assay type: in vivo, rat (Sprague-Dawley); conditions: for Hypotensive effect R.A. (relative activity): chlorpromazine = 1.00; for Hypotensive effect R.A. (relative activity) / ED20 / Hypotensive effect ED 20%: rat; for comparison with chlorpromazine, taking into account the hypotensive effect / hypotensive action, doses compared with chlorpromazine: in words; for ED20: read-out: Hypotensive effect ED 20%; for quotient of the sedative effective dose and the hypotensive effective dose, times more advantageous than for chlorpromazine: relative to chlorpromazine
Description: The blood pressure was measured in the carotid artery. The substance was administered either by introduction into a jugular vein (as an aqueous solution, at the rate of 1 ml/kg) or intraperitoneally as a suspension in tragacanth (at the rate of 10 ml/kg). The ED 20%, ie. the dose which produces a 20% lowering of the blood pressure, was determined from the linear regression of log dose (mg/kg) and relative lowering of the blood pressure (Δ%).

[2] = Table 1, rat, intraperitoneal, dose at which 50% of animals are cataleptic
[3] = Table 1, mouse, oral, dose producing 50% reduction in orientation hypermotility, read-out: Sedative effect ED 50%
[4] = Table 2, sedative ED 50% vs hypotensive ED 20% i.p.
[5] = ip, Table 2, i.p., dose which reduces the blood pressure by 20%
[6] = Table 2, mouse, oral, dose which reduces the motility by 50%, read-out: Sedative effect ED 50%
[7] = Table 2, sedative ED 50% vs hypotensive ED 20% i.v.
[8] = iv, Table 2, i.v., dose which reduces the blood pressure by 20%

Structure (SMILES): COc1cccc(N2CCN(CC(O)COc3ccc(-n4cncn4)cc3)CC2)c1 (stereo not drawn) [Example 1, 1-[4-(1,2,4-Triazol-1-yl)-phenoxy]-3-[4-(3-methoxyphenyl)-piperazin-1-yl]-propan-2-ol]
- inhibition of histamine bronchospasm (average) (histamine bronchospasm; 0.1 mg/kg intravenously): 87%
- broncholytic effect on the histamine bronchospasm (histamine bronchospasm; in words): strong broncholytic effect
- ED50 ([1]; Mus musculus, po, read-out: sedative effect ED 50%): 7.6 mg/kg
- sedative action ([1]; in words): relatively slight sedative action
- effect in respect of sedation, % of that of chlorpromazine [1]: 28%

Structure (SMILES): OC(COc1ccc(-n2cncn2)cc1)CN1CCN(c2ccc(F)cc2)CC1 (stereo not drawn) [Example 2, 1-[4-(1,2,4-Triazol-1-yl)-phenoxy]-3-[4-(4-fluorophenyl)-piperazin-1-yl]-propan-2-ol]
- Cataleptic effect R.A. (relative activity) (catalepsy; Table 1, rat, intraperitoneal): 0.43
- ED50 (catalepsy; [2]): 10 mg/kg
- effect in respect of catalepsy, % of that of chlorpromazine (catalepsy): 43%
- Hypotensive effect R.A. (relative activity) (blood pressure; Table 1, i.v.): 0.08
- Q (quotient of the sedative effective dose and the hypotensive effective dose) (blood pressure; Table 1, hypotensive dose i.v.): 8.0
- comparison with chlorpromazine, taking into account the hypotensive effect (blood pressure): clearly superior to chlorpromazine
- ED20 (blood pressure; iv, Table 1, i.v., dose producing 20% lowering of blood pressure): 0.316 mg/kg
- quotient of the sedative effective dose and the hypotensive effective dose, times more advantageous than for chlorpromazine (blood pressure): 10 times
- Sedative effect R.A. (relative activity) ([1]; Table 1, mouse, oral): 0.84
- ED50 [1, 3]: 2.52 mg/kg
- sedative-neuroleptic properties ([1]; in words): powerful sedative-neuroleptic properties
- effect in respect of sedation, % of that of chlorpromazine [1]: 84%

Structure (SMILES): OC(COc1ccc(-n2ccnc2)cc1)CN1CCN(c2ccc(F)cc2)CC1 (stereo not drawn) [Example 3, 1-[4-(Imidazol-1-yl)-phenoxy]-3-[4-(4-fluorophenyl)-piperazin-1-yl]-propan-2-ol]
- Cataleptic effect R.A. (relative activity) (catalepsy; Table 1, rat, intraperitoneal): 0.2
- ED50 (catalepsy; [2]): 21.5 mg/kg
- effect in respect of catalepsy, % of that of chlorpromazine (catalepsy): 20%
- Hypotensive effect R.A. (relative activity) (blood pressure; Table 1, i.p.): 0.02
- Q (quotient of the sedative effective dose and the hypotensive effective dose) (blood pressure; Table 1, hypotensive dose i.p.): 0.3
- comparison with chlorpromazine, taking into account the hypotensive effect (blood pressure): clearly superior to chlorpromazine
- ED20 (blood pressure; ip, Table 1, i.p., dose producing 20% lowering of blood pressure): 10 mg/kg
- quotient of the sedative effective dose and the hypotensive effective dose, times more advantageous than for chlorpromazine (blood pressure): 43 times
- Sedative effect R.A. (relative activity) ([1]; Table 1, mouse, oral): 0.77
- ED50 [1, 3]: 2.75 mg/kg
- sedative-neuroleptic properties ([1]; in words): powerful sedative-neuroleptic properties
- effect in respect of sedation, % of that of chlorpromazine [1]: 77%

Structure (SMILES): COc1ccccc1N1CCN(CC(O)COc2ccccc2-c2ccnc(N)n2)CC1 (stereo not drawn) [Example 5, 1-[2-(2-Aminopyrimidin-4-yl)-phenoxy]-3-[4-(2-methoxyphenyl)-piperazin-1-yl]-propan-2-ol]
- Hypotensive effect R.A. (relative activity) (blood pressure; Table 2, i.p.): 2.06
- Q (blood pressure; [4]): 413
- hypotensive action, doses compared with chlorpromazine (blood pressure; Table 2): at lower doses than chlorpromazine
- ED20 (blood pressure; [5]): 0.0795 mg/kg
- doses at which sedative side-effect is observed relative to hypotensive doses ([1]; Table 2): 400-1,300 times greater
- Sedative effect R.A. (relative activity) ([1]; Table 2, mouse, oral): 0.06
- ED50 [1, 6]: 32.8 mg/kg

Structure (SMILES): COc1ccccc1N1CCN(CC(O)COc2ccccc2-c2cc[nH]n2)CC1 (stereo not drawn) [Example 10, 1-[2-(Pyrazol-3-yl)-phenoxy]-3-[4-(2-methoxyphenyl)-piperazin-1-yl]-propan-2-ol.HCl]
- Hypotensive effect R.A. (relative activity) (blood pressure; Table 2, i.v.): 0.79
- Q (blood pressure; [7]): 442
- hypotensive action, doses compared with chlorpromazine (blood pressure; Table 2): at lower doses than chlorpromazine
- ED20 (blood pressure; [8]): 0.0328 mg/kg
- doses at which sedative side-effect is observed relative to hypotensive doses ([1]; Table 2): 400-1,300 times greater
- Sedative effect R.A. (relative activity) ([1]; Table 2, mouse, oral): 0.15
- ED50 [1, 6]: 14.5 mg/kg

Structure (SMILES): COc1ccccc1N1CCN(CC(O)COc2cccc(-c3cc[nH]n3)c2)CC1 (stereo not drawn) [Example 15, 1-[3-(Pyrazol-3-yl)-phenoxy]-3-[4-(2-methoxyphenyl)-piperazin-1-yl]-propan-2-ol.3HCl]
- Hypotensive effect R.A. (relative activity) (blood pressure; Table 2, i.v.): 1.39
- Q (blood pressure; [7]): 1,342
- hypotensive action, doses compared with chlorpromazine (blood pressure; Table 2): at lower doses than chlorpromazine
- ED20 (blood pressure; [8]): 0.0187 mg/kg
- doses at which sedative side-effect is observed relative to hypotensive doses ([1]; Table 2): 400-1,300 times greater
- Sedative effect R.A. (relative activity) ([1]; Table 2, mouse, oral): 0.08
- ED50 [1, 6]: 25.1 mg/kg

Structure (SMILES): CN(C)CCCN1c2ccccc2Sc2ccc(Cl)cc21 [chlorpromazine, reference compound]
- ED50 (catalepsy; Rattus norvegicus): 4.3 mg/kg
- Cataleptic effect R.A. (relative activity) (catalepsy; Table 1, rat, intraperitoneal): 1.0
- Hypotensive effect R.A. (relative activity) (blood pressure; Table 1, i.p.): 1.0
- Hypotensive effect R.A. (relative activity) (blood pressure; Table 1, i.v.): 1.0
- Q (quotient of the sedative effective dose and the hypotensive effective dose) (blood pressure; Table 1, hypotensive dose i.v.): 81.1
- Hypotensive effect ED 20% (blood pressure; Table 1, i.p., dose producing 20% lowering of blood pressure): 0.164
- Hypotensive effect ED 20% (blood pressure; Table 1, i.v., dose producing 20% lowering of blood pressure): 0.026
- Hypotensive effect R.A. (relative activity) (blood pressure; Table 2, i.p.): 1.00
- Hypotensive effect R.A. (relative activity) (blood pressure; Table 2, i.v.): 1.00
- Q (blood pressure; [4]): 13
- Q (blood pressure; [7]): 81
- ED20 (blood pressure; [5]): 0.164 mg/kg
- ED20 (blood pressure; [8]): 0.026 mg/kg
- Sedative effect R.A. (relative activity) ([1]; Table 1, mouse, oral): 1.0
- Sedative effect ED 50% ([1]; Table 1, mouse, oral, dose producing 50% reduction in orientation hypermotility): 2.11
- Sedative effect R.A. (relative activity) ([1]; Table 2, mouse, oral): 1.00
